Measured values published in ChEMBL document CHEMBL1201862, “PubChem BioAssay data set” (2004).
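The compound was tested at five concentrations on cells cultured in 96-well plates, with a 48-hour exposure period. The concentration for 50% growth inhibition is given as GI50.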 Calls of active or inactive are those of the source. Cut-off read from the data, not from the text of the source: active = GI50 up to about 1.1 µM and inactive = higher.

Key:
Assay in all cases: NCI anticancer screen, dose series, 48 h
[1] = tested on: NCI-H226
[2] = tested on: HOP-62
[3] = tested on: COLO 205
[4] = tested on: Hs-578T
[5] = tested on: EKVX
[6] = tested on: HOP-92
[7] = tested on: MCF7
[8] = tested on: MDA-N
[9] = tested on: MOLT-4
[10] = tested on: HCC 2998
[11] = tested on: PC-3
[12] = tested on: A498
[13] = tested on: OVCAR-4
[14] = tested on: SK-OV-3
[15] = tested on: CCRF-CEM
[16] = tested on: K562
[17] = tested on: CAKI-1
[18] = tested on: OVCAR-8
[19] = tested on: SF-268
[20] = tested on: LOX IMVI
[21] = tested on: RPMI-8226
[22] = tested on: SK-MEL-5
[23] = tested on: Malme-3M
[24] = tested on: SK-MEL-28
[25] = tested on: MDA-MB-231
[26] = tested on: NCI/ADR-RES
[27] = tested on: RXF 393
[28] = tested on: UACC-257
[29] = tested on: TK-10
[30] = tested on: HCT-116
[31] = tested on: UACC-62
[32] = tested on: NCI-H460
[33] = tested on: SNB-19
[34] = tested on: OVCAR-3
[35] = tested on: OVCAR-5
[36] = tested on: T47D
[37] = tested on: NCI-H23
[38] = tested on: ACHN
[39] = tested on: SK-MEL-2
[40] = tested on: A549
[41] = tested on: MDA-MB-435
[42] = tested on: SNB-75
[43] = tested on: SN12C
[44] = tested on: HT-29
[45] = tested on: HL-60
[46] = tested on: 786-0
[47] = tested on: HCT-15
[48] = tested on: SW-620
[49] = tested on: M14
[50] = tested on: DU-145
[51] = tested on: IGROV-1
[52] = tested on: KM12
[53] = tested on: SF-295
[54] = tested on: NCI-H522
[55] = tested on: SR
[56] = tested on: UO-31
[57] = tested on: SF-539

Q: Which GI50 [1] does the source give for O=C1C=CC2C3C(=O)N(c4ccccc4)C(=O)C3C1N2Cc1ccccc1 (stereo unspecified) here?
A: 8.07 µM (inactive)

Q: What about the GI50 [2] of the same compound?
A: 3.72 µM (inactive)

Q: And the GI50 [3]?
A: 3.1 µM (inactive)

Q: And the GI50 [4]?
A: 3.51 µM (inactive)

Q: How did the GI50 [5] turn out when CC(=O)c1c(-c2cccc3ccccc23)c(C#N)c(=S)n(C2OC(CO)C(O)C(O)C2O)c1-c1ccccc1 (stereo unspecified) was run?
A: 0.0509 µM (active)

Q: And the GI50 [6]?
A: 13.5 µM (inactive)

Q: Which GI50 [5] does the source give for CSc1c([S+](C)[O-])c2ccccc2n1C (stereo unspecified) here?
A: > 100 µM (inactive)

Q: And the GI50 [7]?
A: > 100 µM (inactive)

Q: What about the GI50 [8] of the same compound?
A: > 100 µM (inactive)

Q: And the GI50 [9]?
A: > 100 µM (inactive)

Q: And the GI50 [1]?
A: > 100 µM (inactive)

Q: What about the GI50 [10] of the same compound?
A: > 100 µM (inactive)

Q: And the GI50 [11]?
A: > 100 µM (inactive)

Q: And the GI50 [12]?
A: > 100 µM (inactive)

Q: And the GI50 [13]?
A: > 100 µM (inactive)

Q: And the GI50 [14]?
A: > 100 µM (inactive)

Q: And the GI50 [15]?
A: > 100 µM (inactive)

Q: And the GI50 [16]?
A: > 100 µM (inactive)

Q: And the GI50 [17]?
A: > 100 µM (inactive)

Q: What about the GI50 [18] of the same compound?
A: > 100 µM (inactive)

Q: And the GI50 [19]?
A: > 100 µM (inactive)

Q: And the GI50 [20]?
A: > 100 µM (inactive)

Q: What about the GI50 [21] of the same compound?
A: > 100 µM (inactive)

Q: What about the GI50 [22] of the same compound?
A: > 100 µM (inactive)

Q: What about the GI50 [23] of the same compound?
A: > 100 µM (inactive)

Q: What about the GI50 [2] of the same compound?
A: > 100 µM (inactive)

Q: And the GI50 [24]?
A: > 100 µM (inactive)

Q: And the GI50 [25]?
A: > 100 µM (inactive)

Q: What about the GI50 [26] of the same compound?
A: > 100 µM (inactive)

Q: What about the GI50 [27] of the same compound?
A: > 100 µM (inactive)

Q: What about the GI50 [28] of the same compound?
A: > 100 µM (inactive)

Q: What about the GI50 [3] of the same compound?
A: > 100 µM (inactive)

Q: And the GI50 [29]?
A: > 100 µM (inactive)

Q: What about the GI50 [30] of the same compound?
A: > 100 µM (inactive)

Q: And the GI50 [31]?
A: > 100 µM (inactive)

Q: And the GI50 [32]?
A: > 100 µM (inactive)

Q: And the GI50 [33]?
A: > 100 µM (inactive)

Q: And the GI50 [34]?
A: > 100 µM (inactive)

Q: And the GI50 [35]?
A: > 100 µM (inactive)

Q: What about the GI50 [36] of the same compound?
A: > 100 µM (inactive)

Q: What about the GI50 [4] of the same compound?
A: > 100 µM (inactive)

Q: And the GI50 [37]?
A: > 100 µM (inactive)

Q: What about the GI50 [38] of the same compound?
A: > 100 µM (inactive)

Q: What about the GI50 [39] of the same compound?
A: > 100 µM (inactive)

Q: And the GI50 [40]?
A: > 100 µM (inactive)

Q: And the GI50 [41]?
A: > 100 µM (inactive)

Q: And the GI50 [42]?
A: 10.8 µM (inactive)

Q: And the GI50 [43]?
A: > 100 µM (inactive)

Q: And the GI50 [44]?
A: > 100 µM (inactive)

Q: What about the GI50 [45] of the same compound?
A: > 100 µM (inactive)

Q: What about the GI50 [46] of the same compound?
A: > 100 µM (inactive)

Q: And the GI50 [47]?
A: > 100 µM

Q: And the GI50 [48]?
A: > 100 µM (inactive)

Q: What about the GI50 [49] of the same compound?
A: > 100 µM (inactive)

Q: And the GI50 [50]?
A: > 100 µM (inactive)

Q: What about the GI50 [51] of the same compound?
A: > 100 µM (inactive)

Q: What about the GI50 [52] of the same compound?
A: > 100 µM (inactive)

Q: What about the GI50 [53] of the same compound?
A: > 100 µM (inactive)

Q: What about the GI50 [54] of the same compound?
A: 0.0142 µM (active)

Q: What about the GI50 [55] of the same compound?
A: > 100 µM (inactive)

Q: And the GI50 [56]?
A: > 100 µM (inactive)

Q: What about the GI50 [57] of the same compound?
A: > 100 µM (inactive)

Q: How did the GI50 [5] turn out when NC(CC(=O)OCc1ccccc1)C(=O)OCc1ccccc1 (stereo unspecified) was run?
A: > 100 µM (inactive)

Q: And the GI50 [7]?
A: > 100 µM (inactive)

Q: And the GI50 [8]?
A: > 100 µM (inactive)

Q: And the GI50 [10]?
A: 33.2 µM (inactive)

Q: And the GI50 [11]?
A: > 100 µM (inactive)

Q: What about the GI50 [15] of the same compound?
A: > 100 µM (inactive)

Q: What about the GI50 [17] of the same compound?
A: 63.1 µM (inactive)

Q: What about the GI50 [18] of the same compound?
A: > 100 µM (inactive)

Q: What about the GI50 [19] of the same compound?
A: > 100 µM (inactive)

Q: And the GI50 [20]?
A: > 100 µM (inactive)

Q: And the GI50 [21]?
A: > 100 µM (inactive)

Q: What about the GI50 [22] of the same compound?
A: > 100 µM (inactive)

Q: And the GI50 [2]?
A: > 100 µM (inactive)

Q: And the GI50 [24]?
A: > 100 µM (inactive)

Q: And the GI50 [26]?
A: > 100 µM (inactive)

Q: What about the GI50 [28] of the same compound?
A: > 100 µM (inactive)

Q: And the GI50 [3]?
A: > 100 µM (inactive)

Q: What about the GI50 [29] of the same compound?
A: > 100 µM (inactive)

Q: And the GI50 [30]?
A: > 100 µM (inactive)

Q: And the GI50 [31]?
A: > 100 µM (inactive)

Q: What about the GI50 [32] of the same compound?
A: > 100 µM (inactive)

Q: And the GI50 [33]?
A: > 100 µM (inactive)

Q: And the GI50 [34]?
A: > 100 µM (inactive)

Q: And the GI50 [35]?
A: > 100 µM (inactive)

Q: And the GI50 [36]?
A: > 100 µM (inactive)

Q: And the GI50 [4]?
A: 60.4 µM (inactive)

Q: And the GI50 [37]?
A: > 100 µM (inactive)

Q: What about the GI50 [38] of the same compound?
A: > 100 µM (inactive)

Q: And the GI50 [39]?
A: > 100 µM (inactive)

Q: What about the GI50 [40] of the same compound?
A: > 100 µM (inactive)

Q: And the GI50 [41]?
A: > 100 µM (inactive)

Q: What about the GI50 [43] of the same compound?
A: > 100 µM (inactive)

Q: What about the GI50 [46] of the same compound?
A: > 100 µM (inactive)

Q: What about the GI50 [47] of the same compound?
A: > 100 µM

Q: And the GI50 [48]?
A: > 100 µM (inactive)

Q: What about the GI50 [49] of the same compound?
A: > 100 µM (inactive)

Q: What about the GI50 [50] of the same compound?
A: > 100 µM (inactive)

Q: And the GI50 [51]?
A: > 100 µM (inactive)

Q: What about the GI50 [52] of the same compound?
A: > 100 µM (inactive)

Q: What about the GI50 [53] of the same compound?
A: > 100 µM (inactive)

Q: What about the GI50 [54] of the same compound?
A: > 100 µM (inactive)

Q: What about the GI50 [55] of the same compound?
A: > 100 µM (inactive)

Q: And the GI50 [56]?
A: 69.5 µM (inactive)

Q: And the GI50 [57]?
A: > 100 µM (inactive)
